{"source": "paper PMC6152407", "about": "“Molecular Mechanisms Underlying Inhibitory Binding of Alkylimidazolium Ionic Liquids to Laccase” (Molecules : A Journal of Synthetic Chemistry and Natural …, 2017)", "key": {"[1]": {"molecular_target": "Myceliophthora thermophila (Mth) laccase", "experiment": "Inhibition kinetics of laccase/ABTS oxidation (Lineweaver–Burk)", "type": "biochemical", "details": "laccase/ABTS oxidation at pH 3; read-out: competitive inhibition constant Kic", "method": "(§1) Reaction velocities (vo) were determined by mixing 50 μL of the properly diluted enzyme, 50 μL of substrate solution, and 2.4 mL of the media containing phosphate–citrate buffer (30 mM) and ILs in a 1 cm × 1 cm × 4 cm quartz colorimetric cell. […] All the reported data were averaged from at least three parallel measurements.\nA series of vo were measured under varied concentrations of substrate ([S]) and IL ([I]). The Lineweaver–Burk diagrams were then constructed by plotting 1/vo against 1/[S] to estimate Km and Vmax according to Equation (1). The features of inhibition by different ILs were also deduced from the diagrams. Ki was correspondingly calculated from Equations (2), (3) or (4).\n(2) (Competitive) 1/v0=KM/Vmax[S](1+[I]/Kic)+ 1/Vmax"}, "[2]": {"test_system": "Myceliophthora thermophila (Mth) laccase", "type": "biochemical", "method": "as §1"}, "[3]": {"experiment": "Stability of ABTS cation radicals in ILs/buffer media", "details": "30 mM buffer without IL", "method": "ABTS cation radicals (ABTS^+) were obtained from the oxidation of ABTS (10 mmol/L) with the laccase (50 U/L) in […] phosphate–citrate buffer (pH 3) at 40 °C for 2 h. Then, the reaction mixtures were centrifuged in an ultrafiltration tube (molecular weight cutoff 10 kDa; Millipore, Bedford, MA, USA) at 9000× g for 10 min). Enzymes and polymerized substances were removed. The oxidized products were incubated with buffer (30 mM, pH 2~7) and ionic liquids (50 mM) at 25 °C for 6 min. The concentration of each product was monitored by the spectrophotometer."}, "[4]": {"test_system": "Tve laccase", "details": "ABTS, pH 3, cited from earlier work"}, "[5]": {"test_system": "Mth laccase"}, "[6]": {"design": "method as in PMID 26556325", "details": "80% aqueous solution; cited from earlier work"}}}
{"compound": "CCCCCCCC[n+]1ccn(C)c1", "note": "[[Omim]Cl]", "values": [{"measurement": "Ki", "setting": "[1]", "result": 2150, "unit": "µM"}]}
{"compound": "CCCCCCCCCCn1cc[n+](C)c1", "note": "[[Dmim]Cl]", "values": [{"measurement": "Ki", "setting": "[1]", "result": 180, "unit": "µM"}, {"measurement": "laccase inactivation", "setting": "[2]; 50 mM IL, ABTS, pH 3 (Figure 2d)", "result": "almost completely inactivated"}]}
{"compound": "ABTS^+", "values": [{"measurement": "half-life of ABTS^+", "setting": "[3]; pH 2", "result": 6.17, "unit": "h"}, {"measurement": "half-life of ABTS^+", "setting": "[3]; pH 7", "result": 0.728, "unit": "h"}]}
{"compound": "[Cl-].[Na+]", "note": "[NaCl]", "values": [{"measurement": "uncompetitive constant Kiu", "setting": "[4]", "result": 18.1, "unit": "mM"}, {"measurement": "Ki", "setting": "[4]; read-out: competitive constant Kic", "result": 350, "unit": "µM"}]}
{"compound": "CCCCn1cc[n+](C)c1.[Cl-]", "note": "[[Bmim]Cl]", "values": [{"measurement": "initial activity retained by re-dissolved complex", "setting": "[5]", "result": 65, "unit": "%"}, {"measurement": "retained laccase activity", "setting": "[2]; pH 3", "result": "65~75%"}]}
{"compound": "KCl", "values": [{"measurement": "activity loss compared with other salts", "setting": "[2]; pH 3", "result": "more activity loss than alkylimidazolium chlorides"}]}
{"compound": "CC(C)=O", "note": "[acetone]", "values": [{"measurement": "time for 50% reduction of ABTS^+", "setting": "[6]", "result": "≤ 7", "unit": "min"}]}
